Experimental data from US20190167724A1, “NEUROPROTECTIVE COMPOSITION, PREPARATION PROCESS THEREOF AND MEDICAL USES THEREOF” (priority 2017, published 2019).
Marks after values point to notes of the source that are not given here.

Tested on: 6-OHDA induced Parkinson's Disease-like Zebrafish Larvae Model
Experiment: Anti-Parkinson's Disease efficacy test in 6-OHDA zebrafish larvae model
Format: in vivo
Settings: soaking at 1.5 μg/mL, co-treated with 6-OHDA

CN1Cc2c(N)cccc2C(c2ccccc2)C1 (centres unmarked) [Nomifensine]
Anti-Parkinson's Disease Efficacy (Motility Increase Rate): 40.9%*
Total Distance (mm) (Mean ± SE) (30 minutes, n = 10): 2738 ± 165 mm
